Data on 5 molecules can be found in patent publication US9254308B2, “Kits and methods for the treatment of cancer using gliadin peptides” (BARMARSA RESEARCH LLC, priority 2013, dated 2016).

The subject of one data set is PANC-1 cells. The experiment in a line: Cell count, PANC-1 cells, 14-day treatment regimen. The class given is cell-based, human. On the procedure:
All treatments were conducted in triplicate. […] Media was refreshed with the respective treatments every 72 hours. After 14 days of treatment, cells were trypsinized and counted.

The test system of data set [1] is PANC-1 human pancreatic carcinoma cells. The experiment in a line: Cell count, PANC-1 cells, 5-FU 72-hour treatment. It counts as cell-based. As to conditions: PANC-1, 72 h.
In data set [2] the test system is A549 cells. The experiment in a line: Cell count, A549 cells, 14-day treatment regimen. It counts as cell-based, human. As to conditions: A549, 14 days; 3.3 μM cisplatin. On the procedure:
All treatments were conducted in triplicate. […] Media was refreshed with the respective treatments every 72 hours.

Data set [3] has as its system A549 cells. The experiment in a line: Cell count, A549 cells, cisplatin 72-hour treatment. The class given is cell-based, human. As to conditions: A549, 72 h. Here is the method:
All experiments were conducted in triplicate.

The next data set concerns A549 NSCLC cells. The experiment in a line: MTT growth inhibition, A549 cells, 72-hour treatment.
The subject of data set [4] is NCI-H1975 NSCLC cells (EGFR L858R, T790M). The experiment in a line: MTT growth inhibition, NCI-H1975 cells, 72-hour treatment.
Experimental: (§1) Cells were kept at 37° C. in a humidified atmosphere of 5% CO2 and grown until they reached a confluency of 90%. Cells were then washed, trypsinized, and counted using a Coulter counter.
(§2) Cells were plated at a density of 10,000 cells/well in 24-well cell culture plates and allowed to adhere for 24 hours. […] All experiments were conducted in sextuplicate. […] Following 72 hours of treatment, growth inhibition was evaluated by the MTT assay according to the manufacturer's instructions. The absorbance at 570 nm was measured using a plate reader.
Data set [5] has as its system PANC-1 pancreatic carcinoma cells. The experiment in a line: MTT growth inhibition, PANC-1 cells, 72-hour treatment. As to conditions: for Mean absorbance (570 nm): PANC-1, 72 h, 1 μg/mL gefitinib or erlotinib alone.
Experimental: as §1, §2
The subject of another data set is NSCLC. The settings on record: Caucasian NSCLC patients; Gottschling 2012; cited from earlier work.
The test system of data set [6] is A549 cells. The experiment in a line: TUNEL apoptosis assay, A549 cells. The class given is cell-based, human. The settings on record: A549, 72 h, 1 μM gefitinib alone.
Experimental: The ability of alpha-gliadin p31-43 to induce apoptosis in cancer cells was assessed. […] Cells were grown in the presence of 5% CO2 at 37° C. in an incubator.
Briefly, A549 cells (1×10^5) were plated in chamber slides and allowed to adhere overnight. […] After the 72-hour treatment, the cells were fixed with 4% formaldehyde in PBS (pH 7.4) for 25 minutes at room temperature, then washed twice for 5 minutes in PBS, permeabilized in 0.2% Triton X-100 solution in PBS for 5 minutes at room temperature, and finally washed twice for 5 minutes in PBS. Apoptosis was measured using the DeadEnd™ Colorimetric TUNEL System (Promega, Madison, Wis.) according to the manufacturer's instructions. At the end of the assay, the cells were mounted and observed under the microscope.
Data set [7] concerns A549 human lung cancer xenograft. The experiment in a line: A549 human lung cancer xenograft model, tumor volume. The class given is in vivo, nude mice. The settings on record: alone or with 200 μg gliadin i.v.; for Mean Tumor Volume: 150 mg/kg gefitinib by gavage once daily 14 days. The text has this:
Six-week old female nude mice (Harlan Laboratories, Indianapolis, Ind.) were quarantined for 3 days and housed 5 mice per cage, with a 12-hour light-dark cycle, and a relative humidity of 50%. Drinking water and diet were supplied to the animals ad libitum. All animals were housed under pathogen-free conditions. […] The animals were monitored for two weeks following the 14-day treatment period. Tumor measurements were initiated as soon as the tumor formed a palpable mass and measured twice weekly.
(In general: Xenograft models place foreign cells or tissue in a host animal.)

Data set [8] deals with 5-FU-resistant PANC-1 cells. The experiment in a line: Cell count, surviving 5-FU-resistant PANC-1 cells, 7-day gliadin treatment. It counts as cell-based, human. As to conditions: 100 μg/mL or 200 μg/mL for 7 additional days. On the procedure: In order to examine the effects of alpha-gliadin peptide p31-43 on PANC-1 cells exposed to 5-FU for an extended period of time (14 days), an experiment was conducted on the surviving, i.e., resistant, cell population (4%) from the previous experiment. Briefly, after counting viable cells on day 14 of treatment, surviving cells were replated at a density of 5,000 cells per well. The following day, cells were treated with vehicle or 100 μg/mL or 200 μg/mL of alpha-gliadin peptide p31-43. Media containing the respective treatments was refreshed on day 3 and 6. On day 7, cells were trypsinized and counted.

The nature of data set [9]: Toxicity in BALB/c mice (body weight, behavior, deaths). It counts as in vivo. The settings on record: female BALB/c mice. Here is the method: The toxicity of alpha-gliadin peptide p31-43 in animals was evaluated. Five- to six-week old female BALB/c mice were dosed with vehicle (100 μL DMSO/saline) administered subcutaneously once a day for five days (Group 1) or 200 μg of alpha-gliadin peptide p31-43 in vehicle administered subcutaneously once a day for five days (Group 2). To prepare the gliadin solution, 70 μL of sterile DMSO was added to 1 mg of alpha-gliadin peptide p31-43 and vortexed to dissolve the peptide. After the peptide was dissolved, 430 μL of sterile 0.9% sodium chloride was added and vortexed to create a 1000 μg/500 μL solution of alpha-gliadin peptide p31-43.
Toxicity was evaluated using daily weight measurements and behavior assessments. […] At the end of the study, the mean body weights (±SE) were 19.8±0.4 grams for Group 1 (n=5) and 20.0±0.3 grams for Group 2 (n=5). […] Alpha-gliadin peptide p31-43 was therefore tolerated at a dosing level of 10 mg/kg/day without apparent toxicity.

Where [10] appears, read: 200 μg subcutaneously once a day for five days.

Where no end group is shown, it is not given here.

Experimental for A549 NSCLC cells: as §1
A549 NSCLC cells were maintained and cultured as described above. […] Cells were plated at a density of 10,000 cells/well in 24-well cell culture plates and allowed to adhere for 24 hours. […] All experiments were conducted in sextuplicate. […] Following 72 hours of treatment, growth inhibition was evaluated by the 3-(4,5-dimethylthiazol-2-yl)-2,5-diphenyltetrazolium bromide (MTT) assay (Roche Diagnostics Corporation, Indianapolis, Ind.) according to the manufacturer's instructions. The absorbance at 570 nm was measured using a plate reader (BioTek, Winooski, Vt.).

Turning to `O=c1[nH]cc(F)c(=O)[nH]1` [5-FU, 5-Fluorouracil], the inhibition (commonly the relative decrease from the control value, in per cent) at 6.25 µM with PANC-1 cells (Homo sapiens, 336 h, PANC-1, 14 days, 6.25 μM 5-FU) worked out at 96%; in [1] (Homo sapiens, 5-FU 6.25 μM), 63.3%. Besides, the “Mean Cell Number/mL” value in the data set with PANC-1 cells (PANC-1, 14 days, 6.25 μM 5-FU) is 33,233 /mL; in [1] (5-FU 6.25 μM), 116,500 /mL; in data set [1] (5-FU 12.5 μM) it was 117,500 /mL; in [1] (5-FU 25.0 μM) it was 118,200 /mL; in [1] (5-FU 50.0 μM), 100,200 /mL; in data set [1] (5-FU 100.0 μM) it was 117,600 /mL. The “Mean Cell Number/mL” value is listed as 83,900 /mL in data set [1] (5-FU 200.0 μM) and 66,200 /mL in data set [1] (5-FU 400.0 μM). The “surviving 5-FU-resistant population remaining viable, of the initial population” value in the data set with PANC-1 cells (PANC-1, following 14-day 5-FU treatment) was found to be 4%. In [1] (Homo sapiens, 5-FU 12.5 μM), this molecule returned an inhibition at 12.5 µM of 63%. Further, 25 µM produced 62.8% inhibition in data set [1] (Homo sapiens, 5-FU 25.0 μM). Moreover, the inhibition at 50 µM in data set [1] (Homo sapiens, 5-FU 50.0 μM) came out at 63%. In [1] (Homo sapiens, 5-FU 100.0 μM), this molecule registered an inhibition at 100 µM of 68.5%. This molecule registered an inhibition at 200 µM in [1] (Homo sapiens, 5-FU 200.0 μM) of 73.6%. Further, the inhibition at 400 µM in data set [1] (Homo sapiens, 5-FU 400.0 μM) worked out at 79.2%.

For `N.N.[Cl][Pt][Cl]` [cisplatin], the % Inhibition (in general, the change of the read-out against control, counted positive when it falls) is on record as 98% with A549 cells [2]; 13.5% with A549 cells [3] (cisplatin 0.103 μM); 21.8% in the data set on A549 cells [3] (cisplatin 0.207 μM); 42.0% in the data set with A549 cells [3] (cisplatin 0.413 μM); 74.9% in the data set on A549 cells [3] (cisplatin 0.825 μM); 91.6% in the data set on A549 cells [3] (cisplatin 1.650 μM). In addition, the “% Inhibition” value in the data set with A549 cells [3] (cisplatin 3.300 μM) is given as 94.8%. The “Mean Cell Number/mL” value in the data set on A549 cells [2] is on record as 5,780 /mL. Moreover, the “Mean Cell” value in the data set with A549 cells [3] (cisplatin 0.103 μM) is reported as 166,883; with A549 cells [3] (cisplatin 0.207 μM), 150,917; in the data set on A549 cells [3] (cisplatin 0.413 μM), 111,917; in the data set with A549 cells [3] (cisplatin 0.825 μM), 48,400; in the data set with A549 cells [3] (cisplatin 1.650 μM), 16,117; with A549 cells [3] (cisplatin 3.300 μM), 10,033.

In the case of `C#Cc1cccc(Nc2ncnc3cc(OCCOC)c(OCCOC)cc23)c1` [erlotinib], the “% Inhibition” value in the data set on A549 NSCLC cells is given as 3.4%; in data set [5], 0%. The “Mean absorbance (570 nm)” value in the data set with A549 NSCLC cells was determined as 1.44; in [4], 1.73; in data set [5], 1.98. In addition, the “patients exhibiting significant changes in disease progression following therapy” value in the data set with NSCLC is given as “about 10%”.

The molecule `COc1cc2ncnc(Nc3ccc(F)c(Cl)c3)c2cc1OCCCN1CCOCC1` [gefitinib] gave a Mean % apoptotic in the data set on A549 cells [6] of 19%. Moreover, the tumor doubling time in [7] (A549 xenograft, 150 mg/kg gefitinib) was 24.48 days. Besides, the “Mean Tumor Volume” value in [7] (Study Day 4 (dosing period)) turned out to be 47.74 ± 2.87 mm^3; in data set [7] (Study Day 7 (dosing period)), 51.67 ± 5.69 mm^3; in [7] (Study Day 11 (dosing period)), 49.30 ± 3.77 mm^3; in data set [7] (Study Day 14 (dosing period)) it was 60.43 ± 5.35 mm^3; in data set [7] (Study Day 18 (recovery period)) it was 75.40 ± 9.05 mm^3; in [7] (Study Day 21 (recovery period)), 95.22 ± 11.15 mm^3. Besides, the “Mean Tumor Volume” value in data set [7] (Study Day 25 (recovery period)) worked out at 157.69 ± 14.76 mm^3; in [7] (Study Day 28 (recovery period, termination), 150 mg/kg) it was 239.25±32.78 mm^3. The entries for the “Mean absorbance (570 nm)” value (in the data set with A549 NSCLC cells; in data set [5]) were 1.35 and 2.11, respectively. Further, the “patients exhibiting significant changes in disease progression following therapy” value in the data set with NSCLC is “about 10%”.

Consider “LGQQQPFPPQQPY [gliadin, alpha-gliadin peptide p31-43]”, for which, in data set [8], the “cell proliferation of surviving 5-FU-treated PANC-1 cells” value is on record as “cell proliferation was significantly suppressed”. In addition, in data set [9] (setting [10]), the “behavior changes compared to control mice” value was “No behavior changes were observed” and the treatment-related deaths entry is listed as “no treatment-related deaths”. For the same molecule, in data set [9] (200 μg subcutaneously once a day for five days, n=5), the “mean body weight (±SE) at the end of the study” value was found to be 20.0±0.3 grams. For the same molecule, the NOAEL at 120 h in data set [9] (mouse, in vivo, sc, 200 ug, subcutaneously, five days, read-out: dosing level tolerated without apparent toxicity) worked out at 10 mg/kg/day.
